Experimental data taken from patent US20250368625A1, “PIPERAZINES” (Grünenthal GmbH, priority 2024, published 2025).

Biological target: T1, human SSTR4 (Homo sapiens, UniProt P31391)
T1 construct: expressed in transfected cells; host or cells: CHO-K1
Experiment: hSSTR4 cAMP assay (cAMP accumulation, LANCE Ultra cAMP kit, CHO-K1 human SSTR4 Gi cell line)
Type: cell-based
Conditions: functional agonism, forskolin 10 μM stimulated CHO-K1 human SSTR4 Gi cells, 30 min at 25° C., at least duplicate, averaged; read-out: hSSTR4 EC50
Experimental: cAMP accumulation assay using a CHO-K1 human SSTR4 Gi cell line.
Quantification of intracellular cAMP was performed using the LANCE Ultra cAMP assay kit from Revvity according to the manufacturer's instructions. CHO-K1 human SSTR4 Gi cell were either seeded in a density of 3K cells per well into a 384 well plate and incubated at 37° C. and 5% CO2 for 18-20 h or a stock of frozen cells were defrosted and seeded in a density of 5K cells per well without any further cultivation directly prior to the assay in a total volume of 5 μL in stimulation buffer. For pre-cultured cells, medium was replaced with 5 μL stimulation buffer before the assay. Cells were then stimulated with forskolin (final concentration 10 μM) and test compound (SSTR4 agonist) in increasing concentrations in duplicates for 30 min at 25° C. After stimulation, cells were lysed by addition of 10 μL of detection buffer (provided with the kit) and cell lysates were further diluted to ensure final cAMP concentrations fitted well into the dynamic range of the test kit. 10 μL of the diluted lysates were then added to respective wells of an OptiPlate-384 microplate. Thereafter, 5 μL of 4× Eu-cAMP tracer working solution was added, followed by addition of 5 μL of ULight-anti-cAMP working solution. The plate was then incubated for 1 h at 25° C. before reading on a TR-FRET microplate instrument. Data were normalized to cAMP high (forskolin only) and low control (forskolin+100 nM SST14) before fitting to a 4-Paramter logistic function.
All data was generated according to the cAMP assay conditions described above in at least duplicate and results are averaged and rounded to two significant figures.

T1 sequence (P31391 whole entry): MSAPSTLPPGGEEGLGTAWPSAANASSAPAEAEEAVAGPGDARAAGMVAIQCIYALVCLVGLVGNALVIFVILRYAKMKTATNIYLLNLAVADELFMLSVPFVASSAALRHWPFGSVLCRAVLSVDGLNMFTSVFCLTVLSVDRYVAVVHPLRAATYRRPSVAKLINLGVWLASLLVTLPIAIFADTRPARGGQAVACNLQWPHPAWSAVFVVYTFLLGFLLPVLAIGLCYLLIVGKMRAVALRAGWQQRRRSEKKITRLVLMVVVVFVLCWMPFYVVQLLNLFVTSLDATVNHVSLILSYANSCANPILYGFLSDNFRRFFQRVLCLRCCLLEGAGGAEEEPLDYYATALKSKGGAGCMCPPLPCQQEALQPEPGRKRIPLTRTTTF

SMILES	EC50
Cc1cccn2c(C(C)(C)NC(=O)[C@@H]3CN(CC4CCC(F)(F)CC4)CCN3)ncc12 [SC-067, (S)-4-((4,4-difluorocyclohexyl)methyl)-N-(2-(8-methylimidazo[1,5-a]pyridin-3-yl)propan-2-yl)piperazine-2-carboxamide]	2400 nM
Cc1cccc2c(C(C)(C)NC(=O)[C@@H]3CNCCN3CC3CCOCC3)n[nH]c12 [SC-096, (S)-N-(2-(7-methyl-1H-indazol-3-yl)propan-2-yl)-1-((tetrahydro-2H-pyran-4-yl)methyl)piperazine-2-carboxamide]	0.46 nM
Cc1cccn2c(C(C)(C)NC(=O)[C@@H]3CN(C)CCN3Cc3cnn(C)c3)ncc12 [SC-044, (S)-4-methyl-1-((1-methyl-1H-pyrazol-4-yl)methyl)-N-(2-(8-methylimidazo[1,5-a]pyridin-3-yl)propan-2-yl)piperazine-2-carboxamide]	6.1 nM
Cc1cccn2c(C(C)(C)NC(=O)[C@@H]3CN(Cc4ccncc4)CCN3)ncc12 [SC-059, (S)-N-(2-(8-methylimidazo[1,5-a]pyridin-3-yl)propan-2-yl)-4-(pyridin-4-ylmethyl)piperazine-2-carboxamide]	130 nM
CC(C)(NC(=O)[C@@H]1CNCCN1CC1CC(F)(F)C1)c1ncc2c(Cl)cccn12 [SC-107, (S)-N-(2-(8-chloroimidazo[1,5-a]pyridin-3-yl)propan-2-yl)-1-((3,3-difluorocyclobutyl)methyl)piperazine-2-carboxamide]	0.76 nM
Cc1cccn2c(C(C)(C)NC(=O)[C@@H]3CN(C)CCN3)ncc12 [SC-043, (S)-4-methyl-N-(2-(8-methylimidazo[1,5-a]pyridin-3-yl)propan-2-yl)piperazine-2-carboxamide]	350 nM
Cc1cccn2c(C(C)(C)NC(=O)[C@@H]3CN(CC4COC4)CCN3)ncc12 [SC-076, (S)-N-(2-(8-methylimidazo[1,5-a]pyridin-3-yl)propan-2-yl)-4-(oxetan-3-ylmethyl)piperazine-2-carboxamide]	620 nM
Cc1cccn2c(C(C)(C)NC(=O)[C@@H]3CN(C4COC4)CCN3)ncc12 [SC-075, (S)-N-(2-(8-methylimidazo[1,5-a]pyridin-3-yl)propan-2-yl)-4-(oxetan-3-yl)piperazine-2-carboxamide]	620 nM
Cc1cccn2c(C(C)(C)NC(=O)[C@@H]3CNCCN3CC(C)(C)F)ncc12 [SC-018, (S)-1-(2-fluoro-2-methylpropyl)-N-(2-(8-methylimidazo[1,5-a]pyridin-3-yl)propan-2-yl)piperazine-2-carboxamide]	1.2 nM
CN1CCN[C@H](C(=O)NC(C)(C)c2ncc3c(C(F)(F)F)cccn23)C1 [SC-112, (S)-4-methyl-N-(2-(8-(trifluoromethyl)imidazo[1,5-a]pyridin-3-yl)propan-2-yl)piperazine-2-carboxamide]	490 nM
Cc1cccn2c(C(C)(C)NC(=O)[C@@H]3CNCCN3Cc3ccc(C(F)(F)F)nc3)ncc12 [SC-030, (S)-N-(2-(8-methylimidazo[1,5-a]pyridin-3-yl)propan-2-yl)-1-((6-(trifluoromethyl)pyridin-3-yl)methyl)piperazine-2-carboxamide]	0.48 nM
Cc1cccn2c(C(C)(C)NC(=O)C3CNCCN3CC3COC3)ncc12 (racemic) [SC-014, rac-N-(2-(8-methylimidazo[1,5-a]pyridin-3-yl)propan-2-yl)-1-(oxetan-3-ylmethyl)piperazine-2-carboxamide]	3.1 nM
Cc1cccn2c(C(C)(C)NC(=O)[C@@H]3CN(C(=O)c4ccn(C)n4)CCN3)ncc12 [SC-084, (S)-4-(1-methyl-1H-pyrazole-3-carbonyl)-N-(2-(8-methylimidazo[1,5-a]pyridin-3-yl)propan-2-yl)piperazine-2-carboxamide]	> 10000 nM
Cc1cccn2c(C(C)(C)NC(=O)[C@@H]3CN(C)CCN3)nc(C)c12 [SC-116, (S)-N-(2-(1,8-dimethylimidazo[1,5-a]pyridin-3-yl)propan-2-yl)-4-methylpiperazine-2-carboxamide]	32 nM
Cc1cccn2c(C(C)(C)NC(=O)[C@@H]3CN(Cc4ccccn4)CCN3)ncc12 [SC-060, (S)-N-(2-(8-methylimidazo[1,5-a]pyridin-3-yl)propan-2-yl)-4-(pyridin-2-ylmethyl)piperazine-2-carboxamide]	1500 nM
CC(=O)N1CCNCC1C(=O)NC(C)(C)c1ncc2c(C)cccn12 (racemic) [SC-009, rac-1-acetyl-N-(2-(8-methylimidazo[1,5-a]pyridin-3-yl)propan-2-yl)piperazine-2-carboxamide]	3400 nM
Cc1cccn2c(C(C)(C)NC(=O)[C@@H]3CN(Cc4cnn(C)c4)CCN3)ncc12 [SC-071, (S)-4-((1-methyl-1H-pyrazol-4-yl)methyl)-N-(2-(8-methylimidazo[1,5-a]pyridin-3-yl)propan-2-yl)piperazine-2-carboxamide]	540 nM
CCCN1CCN[C@H](C(=O)NC(C)(C)c2ncc3c(C)cccn23)C1 [SC-070, (S)-N-(2-(8-methylimidazo[1,5-a]pyridin-3-yl)propan-2-yl)-4-propylpiperazine-2-carboxamide]	82 nM
Cc1cccn2c(C(C)(C)NC(=O)[C@@H]3CN(C4CCC4)CCN3)ncc12 [SC-053, (S)-4-cyclobutyl-N-(2-(8-methylimidazo[1,5-a]pyridin-3-yl)propan-2-yl)piperazine-2-carboxamide]	520 nM
Cc1cccn2c(C(C)(C)NC(=O)[C@@H]3CNCCN3CC3CC(F)(F)C3)nc(C)c12 [SC-115, (S)-1-((3,3-difluorocyclobutyl)methyl)-N-(2-(1,8-dimethylimidazo[1,5-a]pyridin-3-yl)propan-2-yl)piperazine-2-carboxamide]	0.34 nM
CCN1CCNC[C@H]1C(=O)NC(C)(C)c1n[nH]c2c(C)cccc12 [SC-041, (S)-1-ethyl-N-(2-(7-methyl-1H-indazol-3-yl)propan-2-yl)piperazine-2-carboxamide]	0.22 nM
Cc1cccn2c(C(C)(C)NC(=O)C3CNCCN3Cc3ccn(C)n3)ncc12 (racemic) [SC-006, rac-1-((1-methyl-1H-pyrazol-3-yl)methyl)-N-(2-(8-methylimidazo[1,5-a]pyridin-3-yl)propan-2-yl)piperazine-2-carboxamide]	3.7 nM
Cc1cccn2c(C(C)(C)NC(=O)[C@@H]3CNCCN3C)nc(C)c12 [SC-114, (S)-N-(2-(1,8-dimethylimidazo[1,5-a]pyridin-3-yl)propan-2-yl)-1-methylpiperazine-2-carboxamide]	0.38 nM
Cc1cccn2c(C(C)(C)NC(=O)[C@@H]3CNCCN3Cc3cnn(C)c3)ncc12 [SC-090, (S)-1-((1-methyl-1H-pyrazol-4-yl)methyl)-N-(2-(8-methylimidazo[1,5-a]pyridin-3-yl)propan-2-yl)piperazine-2-carboxamide]	1.8 nM
COCCN1CCNC[C@H]1C(=O)NC(C)(C)c1n[nH]c2c(C)cccc12 [SC-097, (S)-1-(2-methoxyethyl)-N-(2-(7-methyl-1H-indazol-3-yl)propan-2-yl)piperazine-2-carboxamide]	1.2 nM
COCCN1CCNC[C@H]1C(=O)NC(C)(C)c1ncc2c(C)cccn12 [SC-092, (S)-1-(2-methoxyethyl)-N-(2-(8-methylimidazo[1,5-a]pyridin-3-yl)propan-2-yl)piperazine-2-carboxamide]	1.1 nM
